# From US6583132B1, “Oxidant scavengers” (Duke University, priority 1993, dated 2003)
# Read-outs that look alike come from different tables or passages of the source.
# How the values were obtained:
# [1] = target: T1, xanthine oxidase (Bos taurus, UniProt P80457); assay: Inhibition of xanthine oxidase; assay type: biochemical; conditions: for Ki: pH 10, 25° C., 1 nM xanthine oxidase
# T1 construct: purchased Boehringer Mannheim
# Protocol: In a first study, assays were performed in a 1 ml quartz cuvette containing 50 mM carbonate buffer, pH 10, 0.1 mM EDTA, 1 nM xanthine oxidase (Boehringer Mannheim) at 25° C. Xanthine oxidase activity was measured spectrophotometrically by following the […] over time at 295 nm. Four concentrations of xanthine (25, 50, 250, 500 μM) and 2 concentrations of MnTBAP (5, 10 μM) were used. Two inhibition constants were then derived from the curve's intercepts (Kii=5.5 μM) and slopes (Kis=15 μM).
# [2] = tested on: Calf pulmonary endothelial cell (CPA-47) line; assay: Glucose oxidase hydrogen peroxide injury of CPA-47, Cr^51 release; assay type: cell-based; conditions: glucose oxidase 100 Mu/ml, 4 hours; 1 hour pretreatment
# Protocol: (§1) Calf pulmonary endothelial cell (CPA-47) line was grown to near confluence in 12-well plates with F-12K medium containing 10% fetal calf serum. CPA-47 cells were loaded with Cr^51 as previously described by Simon et al J. Clin. Invest. 78:1375 (1986) in high glucose minimum essential medium (DMEM). Cells were pretreated with MnTBAP (100 μM) for 1 hour and then exposed to various concentrations of hydrogen peroxide generator, glucose oxidase, for 4 hours. Cell injury was then quantitated as the specific Cr^51 release from CPA-47 cells which has been adjusted for spontaneous Cr51 release.
# as §1, with “(J.” for “J.”, “(1986))” for “(1986)”, “various concentrations of either: (A) MnTBAP; (B) MnTMPyP; (C) ZnTBAP; or (D) CuZnSOD” for “MnTBAP (100 μM)”, “the” for “various concentrations of”, “oxidase (100 Mu/ml),” for “oxidase,”, “Cr^51” for “Cr51”
# [3] = Peroxynitrite-induced oxidation of dihydrorhodamine 123; assay type: biochemical; conditions: peroxynitrite 5 μM; 10 μM dihydrorhodamine 123; 10 min, 22° C.; read-out: concentration giving 50% inhibition of oxidation of dihydrorhodamine 123 to rhodamine 123
# Protocol: Measurement of peroxynitrite-induced oxidation of dihydrorhodamine 123: The peroxynitrite-dependent oxidation of dihydrorhodamine 123 to rhodamine 123, was measured based on the principles of the method described by Kooy et al, Free Radical Biol. Med. 16:149 (1994). Briefly, peroxynitrite at 5 μM was added into phosphate-buffered saline containing 10 μM dihydrorhodamine 123, in the absence of presence of MnTBAP (3-100 μM). After a 10 min incubation at 22° C., the fluorescence of rhodamine 123 was measured using a Perkin-Elmer fluorimeter (Model LS50B: Perkin-Elmer, Norwalk, Conn.) at an excitation wavelength of 500 mn, emission wavelength of 536 nm (slit widths 2.5 and 3.0 nm, respectively).
# [4] = tested on: J774 macrophages; assay: Mitochondrial respiration (MTT) in J774 macrophages; assay type: cell-based
# Protocol: (§2) Cell culture: J774 macrophages were cultured in DMEM medium, supplemented with L-glutamine (3.5 mmol/L) and 10% fetal calf serum. Cells were cultured in 96-well plates (200 μl medium/well) until confluence. To induce the inducible isoform of nitric oxide synthase (iNOS), fresh culture medium containing E. coli LPS (011:B4, 10 μg/ml) alone or in combination with murine γ-interferon (γ-IFN, 10 U/ml) was added in the presence or absence of the NOS inhibitor, the SOD mimetic of the combination of the two compounds for 24 h. Moreover, cells were exposed to the NO donor compounds S-nitroso-N-acetyl-DL-penicillamine (SNAP) (3 mM) and diethylamine:NO NONOate (DNO) (3 mM) for 24 h or to authentic peroxynitrite (1 mM) for 1 h). Nitride/nitrate concentration in the medium and mitochondrial respiration were then measured as described below.
# Measurement of mitochondrial respiration: Cell respiration was assessed by the mitochondrial-dependent reduction of 3-(4,5-dimethylthiazol-2-yl)-2,5-diphenyltetrazolium bromide (MTT) to formazan. Cells in 96-well plates were incubated at 37° C. with MTT (0.2 mg/ml) for 1 hour. Culture medium was removed by aspiration and the cells were solubilized in DMSO (100 μl). The extent of reduction of MTT to formazan within cells was quantitated by the measurement of OD550. All measurements were corrected for the interference of MnTBAP at this wavelength.
# [5] = tested on: J774 macrophages; assay: Nitrite/nitrate production in J774 macrophages; assay type: cell-based; conditions: for inhibition of LPS-induced nitrite/nitrate accumulation: LPS 10 μg/ml; for inhibition of nitrite/nitrate accumulation: LPS and IFN
# Protocol: as §2
# Measurement of nitrite/nitrate production: Nitride/nitrate production, an indicator of NO synthesis, was measured in the supernatant. First, nitrate in the culture medium was reduced to nitrite by incubation with nitrate reductase (670 mU/ml) and NADPH (160 μM) at room temperature for 2 h. After 2 h, nitrite concentration in the samples were measured by the Griess reaction, by adding 100 μl of Griess reagent (1% sulfanilamide and 0.1% naphthylethylenediamide in 5% phosphoric acid) to 100 μl samples of conditioned medium. The optical density at 550 nm (OD550) was measured using a Spectramax 250 microplate reader (Molecular Devices, Sunnyvale, Calif.) Nitrate concentrations were calculated by comparison with OD550 of standard solutions of sodium nitrate prepared in culture medium. All measurements were corrected for the interference of MnTBAP at this wavelength.
# [6] = tested on: descending thoracic aorta rings; assay: NO-induced vascular relaxations of aortic rings; set-up: species or system New Zealand white rabbits; conditions: 100 μM; NO 75-300 nM
# Protocol: Measurement of NO-induced vascular relaxations: New Zealand white rabbits weighing 3-4 kg were anesthetized with pentobarbital (30 mg/kg). The descending thoracic aorta was isolated, removed, cleaned and placed in Krebs buffer (pH 7.5). Vessels were cut into 5 mm rings and hung on stirrups connected to force transducers. Rings were suspended in 20 ml jacketed baths which were kept at 37° C. and bubbled with 95% O2 and 5% CO2. Rings were equilibrated with 2 g resting tension for 1 h before use and contracted with phenylephrine. Saturated NO solution was prepared by bubbling compressed NO gas through a NaOH trap and then into anaerobic deionized water. Aliquots of the nitric oxide solutions (final concentration: 75-300 nM) were added to the rings (in the presence or absence of 100 μM MnTBAP) and relaxant responses were recorded.
# T1 sequence (P80457 whole entry): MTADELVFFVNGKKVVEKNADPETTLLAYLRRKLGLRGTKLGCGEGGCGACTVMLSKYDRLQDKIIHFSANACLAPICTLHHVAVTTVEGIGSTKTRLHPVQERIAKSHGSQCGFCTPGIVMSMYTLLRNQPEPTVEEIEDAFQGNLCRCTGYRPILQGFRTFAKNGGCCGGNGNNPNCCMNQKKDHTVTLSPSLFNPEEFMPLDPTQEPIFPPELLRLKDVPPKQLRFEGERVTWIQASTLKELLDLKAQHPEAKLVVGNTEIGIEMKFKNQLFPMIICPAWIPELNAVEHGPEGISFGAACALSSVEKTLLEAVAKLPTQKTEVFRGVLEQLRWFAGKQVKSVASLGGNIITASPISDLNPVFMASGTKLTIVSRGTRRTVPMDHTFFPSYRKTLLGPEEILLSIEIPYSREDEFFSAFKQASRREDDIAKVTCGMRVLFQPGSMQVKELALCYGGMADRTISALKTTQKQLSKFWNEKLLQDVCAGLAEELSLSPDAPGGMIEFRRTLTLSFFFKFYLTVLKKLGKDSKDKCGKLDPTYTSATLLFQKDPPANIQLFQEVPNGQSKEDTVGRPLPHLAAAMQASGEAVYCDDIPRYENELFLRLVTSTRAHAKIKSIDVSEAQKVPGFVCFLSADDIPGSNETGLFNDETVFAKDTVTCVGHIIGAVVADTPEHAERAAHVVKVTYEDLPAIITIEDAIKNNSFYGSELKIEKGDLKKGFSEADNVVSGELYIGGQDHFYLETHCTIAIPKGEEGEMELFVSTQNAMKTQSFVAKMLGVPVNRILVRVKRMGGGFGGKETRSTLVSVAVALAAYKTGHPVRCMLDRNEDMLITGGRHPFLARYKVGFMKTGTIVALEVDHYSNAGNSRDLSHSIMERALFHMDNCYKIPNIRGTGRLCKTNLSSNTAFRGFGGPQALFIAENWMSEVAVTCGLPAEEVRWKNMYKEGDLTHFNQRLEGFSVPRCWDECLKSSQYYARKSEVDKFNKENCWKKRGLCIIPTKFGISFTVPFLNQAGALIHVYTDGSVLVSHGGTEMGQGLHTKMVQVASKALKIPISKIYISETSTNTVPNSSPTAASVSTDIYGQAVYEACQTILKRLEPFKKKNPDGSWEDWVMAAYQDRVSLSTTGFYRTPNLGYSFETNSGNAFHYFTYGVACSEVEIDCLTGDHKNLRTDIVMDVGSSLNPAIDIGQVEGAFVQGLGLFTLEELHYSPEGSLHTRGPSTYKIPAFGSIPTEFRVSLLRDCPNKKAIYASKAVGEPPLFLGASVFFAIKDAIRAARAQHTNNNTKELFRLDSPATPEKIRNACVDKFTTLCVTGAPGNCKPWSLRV
substance,measurement,setting,value
Mn(III) tetrakis (4-benzoic acid)porphyrin [MnTBAP],manner of inhibition of xanthine oxidase,[1],non-competitive
same,Ki,[1]; read-out: Kii (inhibition constant from intercepts),5.5 µM
same,Ki,[1]; read-out: Kis (inhibition constant from slopes),15 µM
same,hydrogen peroxide-induced endothelial cell injury,[2],reduction
same,IC50,[3],30 µM
same,suppression of mitochondrial respiration by peroxynitrite,"[4]; 1 mM peroxynitrite, 1 h",partially and dose dependently prevented
same,immunostimulation-induced suppression of mitochondrial respiration,"[4]; LPS-treated and LPS and IFN-treated cells, 24 h","dose-dependent, partial restoration"
same,suppression of mitochondrial respiration by NO donors SNAP and DNO,"[4]; SNAP, DNO 3 mM, 24 h",partially and dose dependently prevented
same,nitrite/nitrate formation in the presence of L-NMA,[5],no additional effect
same,inhibition of LPS-induced nitrite/nitrate accumulation,[5]; 100 μM,63%
same,inhibition of nitrite/nitrate accumulation,[5]; 100 μM,25%
same,nitrite/nitrate accumulation in response to DNO,[5]; 300 μM,slight inhibition
same,nitrite/nitrate accumulation in response to SNAP,[5]; 300 μM,did not inhibit
same,inhibition of LPS-induced nitrite/nitrate accumulation,[5]; 300 μM,86%
same,inhibition of nitrite/nitrate accumulation,[5]; 300 μM,61%
same,change of inhibition of nitrite/nitrate accumulation when applied 6 h after LPS,[5]; LPS-stimulated macrophages,more than 50%
same,relaxations in vascular rings in response to authentic NO,[6],did not inhibit
